# In patent US20170058314A1, “NOVEL METHODOLOGY FOR IDENTIFYING ANTI-PERSISTER ACTIVITY AND ANTIMICROBIAL SUSCEPTIBILITY FOR BORRELIA BURGDORFERI AND OTHER BACTERIA” (priority 2014, published 2017):
# Key:
# [1] = tested on: stationary phase B. burgdorferi; assay: Subculture test of drug-treated stationary phase B. burgdorferi; type: cell-based, Borrelia burgdorferi; settings: 10 μg/mL
# Procedure: Seven-day-old B. burgdorferi culture (1×10^7 spirochetes/mL) (500 μL) was treated with drugs or drug combinations in Eppendorf tubes. After incubation at 33° C. for 7 days without shaking, the cells were collected by centrifugation and rinsed with 1 mL fresh BSK-H medium followed by resuspension in 500 μL fresh BSK-H medium without antibiotics. Then 50 μL of cell suspension was transferred to 1 mL fresh BSK-H medium for subculture at 33° C. for 2 weeks. Cell proliferation was assessed using SYBR Green I/PI assay and bacterial counting chamber (Hausser Scientific Partnership) by microscopy as described above.
# [2] = tested on: stationary phase B. burgdorferi persisters (strain B31); assay: epifluorescence microscope counting after SYBR Green I/PI staining, FDA drug screen; settings: Borreliella burgdorferi, 168 h, read-out: Residual viable cells (epifluorescence microscope counting)
# [3] = 7 days treatment, then subculture
structure (smiles),measurement,setting,value
C[C@H]1c2cccc(O)c2C(=O)C2=C(O)[C@]3(O)C(=O)C(C(N)=O)=C(O)[C@@H](N(C)C)[C@@H]3[C@@H](O)[C@@H]21 [Doxycycline],G/R ratio immediately after treatment,[1]; 7 days,6.71
same,G/R ratio after 7 day subculture,[1]; [3],6.23
same,G/R ratio after 15 day subculture,[1]; [3],6.89
same,Spirochetes after 7 day subculture (microscope counting),[1]; [3],9 × 10^5
same,Spirochetes after 15 day subculture (microscope counting),[1]; [3],~5×10^6
same,Spirochetes after 15 day subculture (microscope counting),"[1]; 7 days treatment, then subculture, listed as Dox",4 × 10^6
same,viability at 10 µg/mL,"[1]; Borreliella burgdorferi, 168 h, seven-day-old culture, 7 days, read-out: Residual viable cells (epifluorescence microscope counting)",67%
same,viability at 50 µM,[2],75%
